The record followed here is PMC9879403, “Oncolytic strategy using new bifunctional HDACs/BRD4 inhibitors against virus-associated lymphomas” (PLOS Pathogens, 2023).

Structures are written as SMILES. Read-outs that look alike come from different tables or passages of the source.

Series [1] concerns BCBL-1. The experiment in a line: WST-1 cytotoxicity assay, BCBL-1 (KSHV+ PEL). The note with it: BCBL1, 72 h. Format: cell-based. An excerpt:
(§1) Fig 2 Identification of newly synthesized dual inhibitors with anti-PEL activities. (A) The binding mode of (+)-JQ1 with BRD4^BD1 (PDB: 3MXF). BRD4^BD1 is shown as hot pink cartoon with gray surface. Asn140 in BRD4^BD1 is shown as sticks and colored in following pattern: atom C hot pink, atom N dark blue, and atom O yellow. (+)-JQ1 is shown as sticks and colored in following patten: atom C hot pink, atom N dark blue, atom O yellow, atom S golden, and atom Cl green. The solvent exposed region (SEG) of (+)-JQ1 are indicated with white arrow. (B) The binding modes of SAHA and entinostat with HDAC2 (PDB: 3MAX). HDAC2 is shown as blue cartoon with gray surface. Asp181 and His183 in HDAC2 are shown as sticks and colored in following pattern: atom C blue, atom N dark blue, and atom O yellow. The catalytic zinc ion in the active site of HDAC2 is shown as black sphere. SAHA is shown as sticks and colored in following pattern: atom C green, atom N dark blue, and atom O yellow. Entinostat is shown as sticks and colored in following pattern: atom C hot pink, atom N dark blue, and atom O yellow. The SEG of SAHA or entinostat is indicated with white arrow. Hydrogen bonds (H-bonds) are presented by red dash lines. (C) The HDACs/BRD4 dual inhibitors 002-011 were designed by fusing the key pharmacophores of (+)-JQ1 (pink) and HDAC inhibitors (blue), SAHA or entinostat, via various chemical linkers (green). (D) Anti-PEL activities of the new compounds. Five KSHV positive and two KSHV negative lymphoma cell lines were treated with indicated concentrations of these compounds for 72 h. Then the cytotoxicity was determined using the WST-1 assay. (+)-JQ1, SAHA and entinostat were used for the comparisons as single inhibitors. The CC50 for each compound was calculated using GraphPad Prism 5.0 software. Error bars represent S.D. for 3 independent experiments.
(§2) Fig 4 Identification of anti-PEL activities for compound 009 stereoisomers. (A) The chemical structures of anti-HDACs/BRD4 bifunctional molecules 009P1 and 009P2, as well as anti-HDACs or anti-BRD4 mono-functional molecules 009N1, 009N2, 009N3, and 009N4. (B-C) Four KSHV+ PEL cell lines were treated with indicated concentrations of 009P1, 009P2 or 009N1-N4 for 72 h, then the cytotoxicity was determined using the WST-1 assay. (D-I) BCBL-1 cells were treated with these compounds at the respective 2× CC50 for 24 h, then cell cycle (D-F) and apoptosis (G-I) were measured by flow cytometry analysis. Error bars represent S.D. for 3 independent experiments, ** = p<0.01 (vs vehicle control).
(§3) The cell viability following treatment with compounds was assessed by the WST-1 assay (Roche, Indianapolis, Indiana, USA) according to the manufacturer’s protocol as described previously. The absorbance signal was measured using a microplate reader (Biotek Synergy 2). The 50% cytotoxic concentration (CC50) for each compound was calculated from these dose-response curves using the software GraphPad Prism v5.0. Data were normalized as the fold change compared to the DMSO control.

Series [2] relates to BRD4. The experiment in a line: BRD4 signaling by Western blot (c-Myc expression). The format is cell-based. The note with it: BCBL-1 cells, 48 h, Western blot. A general note: A western blot detects proteins with antibodies after separation by electrophoresis.
The test system of series [3] is BC-1. Nature of the series: WST-1 cytotoxicity assay, BC-1 (KSHV+ PEL). The note with it: Homo sapiens, BC1, 72 h. The format is cell-based.
From the text: as §1, §2, §3
(Tetrazolium assays rely on reduction of a dye to a coloured formazan, in cell work by metabolically active cells.)

The subject of series [4] is BCP-1. Nature of the series: WST-1 cytotoxicity assay, BCP-1 (KSHV+ PEL). To be noted: BCP-1, 72 h. Format: cell-based.
From the text: as §1, §2, §3

The subject of series [5] is JSC-1. The experiment in a line: WST-1 cytotoxicity assay, JSC-1 (KSHV+ PEL). The format is cell-based. The note with it: 72 h.
From the text: as §1, §2, §3

In series [6] the test system is HDACs. The experiment in a line: HDACs signaling by Western blot (H3K9Ac, H4K9Ac, Acetyl-tubulin). The format is cell-based. The note with it: BCBL-1 cells, 48 h, Western blot.
Series [7] in a line: WST-1 cytotoxicity assay, BJAB (KSHV negative lymphoma). Format: cell-based. To be noted: human.
From the text: as §1, §3

Series [8] can be described thus: WST-1 cytotoxicity assay, BL-41 (KSHV negative lymphoma). The format is cell-based. The note with it: human.
From the text: as §1, §3

In series [9] the test system is BJAB.219. Nature of the series: WST-1 cytotoxicity assay, BJAB.219 (KSHV-infected lymphoma). The note with it: 50% cytotoxic concentration, 72 h, WST-1; read-out: KSHV-infected lymphomas CC50, BJAB.219. The format is cell-based.
From the text: as §1
BCBL-1 and iSLK.219 cells were kindly provided by Dr. Pinghui Feng (University of Southern California). BL-41, BJAB, BCP-1, BC-1, BC-3, JSC-1, HUVEC cells were purchased from American Type Culture Collection (ATCC), and cultured as recommended by the manufacturer. For making BJAB.219 cells, BJAB cells were infected with rKSHV.219 stock by spinoculation as previously reported by centrifugation at 1500×g for 60 min [31]. Then, puromycin (10 μg/ml) was added into the medium at 72 h post-infection and the medium containing puromycin was replaced twice a week. After 6-week high concentration of puromycin selection, BJAB.219 cells were then cultured in the medium with 0.5 μg/ml puromycin.
The cell viability following treatment with compounds was assessed by the WST-1 assay (Roche, Indianapolis, Indiana, USA) according to the manufacturer’s protocol as described previously. The absorbance signal was measured using a microplate reader (Biotek Synergy 2). […]

For series [10], the system named is HUVEC. The experiment in a line: WST-1 cytotoxicity on primary cells HUVEC. The format is cell-based, human. On the procedure: as §3
Supplementary file ppat.1011089.s006.tif: S5 Fig Cytotoxicity of tested compounds on HUVEC. The primary cells HUVEC were treated with indicated concentrations of compounds for 72 h, then cell viability was assessed using the WST-1 assay. The CC50 for each compound was calculated from the dose-response curves using Graphpad Prism 5.0 software. Data was normalized as the fold change compared to the DMSO control. (TIF) Click here for additional data file.

As to `COC(=O)c1ccc([C@H](C)OC(=O)C[C@@H]2N=C(c3ccc(Cl)cc3)c3c(sc(C)c3C)-n3c(C)nnc32)cc1` [009N4, methyl 4-((S)-1-(2-((S)-4-(4-chlorophenyl)-2,3,9-trimethyl-6H-thieno[3,2-f][1,2,4]triazolo[4,3-a][1,4]diazepin-6-yl)acetoxy)ethyl)benzoate], the CC50 (as a rule, the concentration giving 50% cytotoxicity) was 180 nM in [1] (read-out: CC50, BCBL-1); 340 nM in [3] (read-out: CC50, BC-1); 530 nM in series [4] (read-out: CC50, BCP-1); 2320 nM in [5] (read-out: CC50, JSC-1). Besides, the c-Myc expression entry in [2] is listed as “drastically downregulated”.
As to `Cc1sc2c(c1C)C(c1ccc(Cl)cc1)=N[C@H](CC(=O)O[C@@H](C)c1ccc(C(=O)Nc3ccccc3N)cc1)c1nnc(C)n1-2` [009N2, (S)-1-(4-((2-aminophenyl)carbamoyl)phenyl)ethyl 2-((R)-4-(4-chlorophenyl)-2,3,9-trimethyl-6H-thieno[3,2-f][1,2,4]triazolo[4,3-a][1,4]diazepin-6-yl)acetate], the CC50 is 1070 nM in series [1] (read-out: CC50, BCBL-1); 3120 nM in series [3] (read-out: CC50, BC-1); 7680 nM in [4] (read-out: CC50, BCP-1); above 10000 nM in [5] (read-out: CC50, JSC-1). Besides, the c-Myc expression entry in series [2] is listed as “subtle effect”. The “H3K9Ac, H4K9Ac and Acetyl-tubulin protein levels” value in series [6] is “upregulated”.
For `COC(=O)c1ccc([C@@H](C)OC(=O)C[C@@H]2N=C(c3ccc(Cl)cc3)c3c(sc(C)c3C)-n3c(C)nnc32)cc1` [009N3, methyl 4-((R)-1-(2-((S)-4-(4-chlorophenyl)-2,3,9-trimethyl-6H-thieno[3,2-f][1,2,4]triazolo[4,3-a][1,4]diazepin-6-yl)acetoxy)ethyl)benzoate], the CC50 came out at 670 nM in series [1] (read-out: CC50, BCBL-1); 1470 nM in [3] (read-out: CC50, BC-1); 2430 nM in series [4] (read-out: CC50, BCP-1); 9840 nM in series [5] (read-out: CC50, JSC-1). For the same compound, in series [2], the c-Myc expression result is listed as “drastically downregulated”.
Consider `Nc1ccccc1NC(=O)c1ccc(CNC(=O)OCc2cccnc2)cc1` [Entinostat, reference compound], for which the CC50 in series [1] (read-out: KSHV-infected lymphomas CC50, BCBL-1) turned out to be 170 nM; in [3] (read-out: KSHV-infected lymphomas CC50, BC-1) it was 300 nM; in series [4] (read-out: KSHV-infected lymphomas CC50, BCP-1), 200 nM; in [9], 180 nM; in [5] (read-out: KSHV-infected lymphomas CC50, JSC-1) it was 150 nM. The CC50 at 72 h was 420 nM in series [7] and 570 nM in [8]. Also, the “Cytotoxicity in primary cells HUVEC” value in series [10] is recorded as “moderate cytotoxicity”.
As to `Cc1sc2c(c1C)C(c1ccc(Cl)cc1)=N[C@H](CC(=O)O[C@H](C)c1ccc(C(=O)Nc3ccccc3N)cc1)c1nnc(C)n1-2` [009N1, (R)-1-(4-((2-aminophenyl)carbamoyl)phenyl)ethyl 2-((R)-4-(4-chlorophenyl)-2,3,9-trimethyl-6H-thieno[3,2-f][1,2,4]triazolo[4,3-a][1,4]diazepin-6-yl)acetate], the CC50 in series [1] (read-out: CC50, BCBL-1) was 7560 nM; in series [3] (read-out: CC50, BC-1), above 10000 nM; in series [4] (read-out: CC50, BCP-1) it was above 10000 nM; in [5] (read-out: CC50, JSC-1) it was above 10000 nM. For the same compound, in [2], the c-Myc expression entry is “subtle effect”. In addition, the “H3K9Ac, H4K9Ac and Acetyl-tubulin protein levels” value in [6] is recorded as “upregulated”.
